US20070248950A1, “Supported polydiacetylene 3-D arrays for flourescent or phosphorescent detection” (Analytical Biological Services, Inc., priority 2006, published 2007)

Molecular target: Bee venom phospholipase A2 (PLA2) (Apis mellifera, UniProt P00630)
Format: biochemical

Chain of Bee venom phospholipase A2 (PLA2) (P00630 34-167 limits assumed): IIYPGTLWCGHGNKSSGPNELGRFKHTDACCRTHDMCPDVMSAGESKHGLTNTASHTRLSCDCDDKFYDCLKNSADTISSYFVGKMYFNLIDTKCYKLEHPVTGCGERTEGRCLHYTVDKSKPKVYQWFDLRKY

CC(=O)O[C@H]1C[C@@H]2[C@@]3(C)CCCC(C)(C)[C@@H]3CC[C@@]2(C)[C@@H]2CC=C(C=O)[C@H](C=O)[C@@]12C [schalaradiol, 12-epi-scalaradial]
inhibition of PLA2 activity (rise in emission at 640 nm of supported liposomes): partial inhibition
